Results taken from ChEMBL document CHEMBL1130311, “Design and synthesis of a possible mimic of a thrombin-binding DNA aptamer” (Bioorg Med Chem Lett, 1997).
Activity calls are given as the source filed them. The rule behind the calls is not given here.

Biological target: Prothrombin (Homo sapiens) (UniProt P00734)
Experiment: Tested for thrombin inhibitory activity by fibrinogen dependent thrombin assay; Inactive

Activity: inactive
Structure (SMILES): Cc1cn([C@H]2C[C@@H]3OP(=O)(O)OC[C@H]4O[C@@H](n5cnc6c(O)nc(N)nc65)C[C@@H]4OP(=O)(O)OC[C@H]4O[C@@H](C[C@@H]4OP(=O)(O)OC(C)C)n4cc(c(=O)[nH]c4=O)COCOC[C@H]3O2)c(=O)[nH]c1=O
